Data on two molecules can be found in patent US20250312320A1, “METHOD AND TREATMENT FOR OSTEOARTHRITIS AND DISEASES OF CHONDROCYTE HYPERTROPHY” (The Royal Veterinary College, priority 2022, published 2025).

Entries after “also recorded” stand apart in the source; their conditions may differ.

Experiment [1] concerns monolayer culture of ATDC5 cells. Put plainly: Monolayer culture of ATDC5 cells, GAG deposition. The note with it: monolayer instead of micromass. The format is cell-based, mouse.
In a further experiment the test system is ATDC5 micromass. Put plainly: Dose response of CDK8 inhibitors on ATDC5 micromass (alizarin red / alcian blue). It is filed as cell-based, mouse. The note with it: all concentrations (10 μM down to 0.1 nM), day 14. As to the method:
In brief, 2 μl micromasses were seeded in a 96-well plate and cultured as previous in the presence of BI1347 and additional CDK8i compounds namely BRD6989, AS2863619, SEL120-34A, MSC2530818 and CCT251545. Compound concentrations were titrated 10-fold from 10 μM down to 0.1 nM. On day 14 micromasses were fixed, stained and subsequently leached to allow for dose response analysis to be conducted.
In brief, 2 μl micromasses were seeded on a 96-well plate and cultured as previous in the presence of BI1347 and additional Mediator kinase inhibitor compounds namely BRD6989, AS2863619, SEL120-34A, MSC2530818 and CCT251545. Compound concentrations were titrated 10-fold from 10 μM down to 0.1 nM. On day 14 micromasses were fixed, stained and subsequently leached to allow for dose response analysis to be conducted.

Experiment [2] concerns MC3T3 (subclone 14) osteoblast-like cells. Briefly: MC3T3 osteoblast-like cell mineralisation (alizarin red). It is filed as cell-based. How it is done:
2×10^4 MC3T3 (subclone 14) osteoblast-like cells were seeded on a 24-well plate and cultured for 2 days in osteoblast growth media (Alpha-MEM supplemented with 10% FBS, 1% Ab/Am) before induction of differentiation with osteoblast differentiation media (Alpha-MEM, 10% FBS, 1% Ab/Am, 50 μg/ml ascorbic acid, 5 mM β-glycerophosphate) in the presence of 1 μM BI1347 or DMSO, with media changes every 2-3 days.
Another MC3T3 differentiation method was also carried out with MSC2530818 treatment. Briefly, MC3T3 cells were seeded as above and differentiated for 7 days in osteogenic induction media (Alpha-MEM, 10% FBS, 1% Ab/Am, 50 μg/ml ascorbic acid) with DMSO or 100 nM MSC2530818, before switching to osteogenic induction media with 2 mM β-glycerophosphate in the presence of 100 nM MSC2530818 or DMSO.
Cells were fixed in 95% ice-cold methanol and stained with 1% Alizarin Red on day 7, 10 and 14 of culture for BI1347 and on day 14 only for MSC2530818 treated cells to observe effects of compounds on mineralization compared to DMSO control. Alizarin red stain was leached and measured as previously described.

The subject of experiment [3] is ATDC5 micromasses. Briefly: Dose response of CDK8i on genes of interest in hypertrophic ATDC5 micromasses. The conditions noted are these: for gene expression of OA protective genes (TIMP4, MATN3, SMOC2, CNMD) / gene expression of hypertrophic/mineralised matrix marker IBSP: 1 μM, 100 nM or 10 nM, 14 day hypertrophic differentiation, vs DMSO; for dose response in gene expression: efficacy down to: 14 days differentiation to hypertrophy. The format is cell-based, mouse. As to the method: To confirm that the gene expression profile observed in the day 7 RNAseq dataset was reproducible in hypertrophic cells, we selected genes of interest from the RNAseq dataset and analysed gene expression analysis on hypertrophic ATDC5 cells. 2.7×10^5 ATDC5 cells were cultured in 10 μl micromasses in the presence of BI1347 and MSC2530818 at concentrations 1 μM, 100 nM, 10 nM and DMSO control for 7 days in differentiation media before switching to mineralisation media for 7 days. On day 14 cells were processed for qPCR analysis as previously described.

Experiment [4] deals with ATDC5 micromasses. Briefly: Phased dosing of CDK8i on ATDC5 micromasses (alcian blue / alizarin red). It is filed as cell-based, mouse. The note with it: 1 μM, phased dosing 2, 4, 6, 9, 11, 14 days, read day 14; all timepoints. As to the method:
To understand the longevity of the CDK8i effect observed with BI1347 and MSC2530818, ATDC5 micromasses were exposed to a phased dosing regimen. This consisted of treating standard 10 μl ATDC5 micromasses with differentiation media containing 1 μM of BI1347 or MSC2530818 for 2 days before switching to control differentiation media for the remaining culture period ending on day 14 of differentiation. This was repeated for 4, 6, 9, 11 and 14 days of treatment. On day 14, cells were fixed and stained with alizarin red or alcian blue as previously described.

Experiment [5] deals with zebrafish embryo endochondral jaw bone. Put plainly: Zebrafish jaw analysis of hypertrophic zones. The format is in vivo, zebrafish (Danio rerio). The conditions noted are these: 50 nM or 100 nM, 24 hpf to 5 dpf, vs DMSO. How it is done: Several bones during zebrafish (Danio rerio) craniofacial development exist via endochondral ossification, thus the developing zebrafish embryo is a useful in vivo model of chondrocyte hypertrophy (Dietrich et al. (2021) “Skeletal Biology and Disease Modeling in Zebrafish”. J Bone Miner Res, 36:436-458. https://doi.org/10.1002/jbmr.4256). Embryos at 24 hpf were cultured in the E3 water ([…], 0.17 mM KCl, 0.33 mM CaCl2, 0.33 mM MgSO4, and 0.1% Methylene Blue) in the presence of 50 nM or 100 nM MSC2530818 or DMSO control up until 5 dpf, with E3 water refreshed every 2 days. At 5 dpf embryos were fixed in 4% PFA overnight at 4° C. before washing in 70% EtOH for 10 mins followed by 50% EtOH for a further 10 mins. Specimens were then incubated in alcian blue stain (0.1% Alcian blue, 70% EtOH, 30% Glacial acetic acid) overnight with gentle agitation before 30 min washes in 100, 80, 70% EtOH and 0.1% PBST. Specimens were digested for 1 hour in enzyme solution (10 mg/ml trypsin in 30% saturated sodium tetraborate) followed by a 1-hour incubation in bleaching solution (3% hydrogen peroxide, 1% potassium hydroxide). Specimens were washed in 0.1% PBST and stored in 70% glycerol at 4° C. until imaging. Jaw sections were dissected and the number of enlarged cells within the entopterygoid/ceratohyal region were counted.

Experiment [6] relates to STR/Ort mouse (spontaneous osteoarthritis). Put plainly: STR/Ort mouse pilot study: cartilage manifestations and gene expression markers. It is filed as in vivo. The note with it: 5 mg/kg oral gavage intermittently, 2 weeks. How it is done:
The STR/Ort mouse is a spontaneous mouse model of osteoarthritis which follows a similar trajectory as primary osteoarthritis disease development as humans and companion animals. […] An initial pilot study consisting of 2 male STR/Ort mice aged 18 weeks per group was carried out. Mice were dosed 5 mg/kg […] (N=2) or DMSO (N=2) in 60% PEG400 via oral gavage 3 times a week intermittently for 2 weeks. On day 14, mice were sacrificed, and articular cartilage was harvested from the knee joint using a micro rongeur. Tissue was homogenised in Qiazol using 2.4 mm beads in pre-chilled Tissue Lyser II racks (Qiagen) at 30 Hz for 5 minutes in total with intervals for samples to be chilled on ice every 60 seconds to prevent sample heating. Homogenised samples were directly processed for RNA extraction using the Direct-Zol microprep kit (Zymo) and RNA was processed for gene expression analysis via qPCR as previous.

For `CN(C)C(=O)Cn1cc(-c2ccc(-c3cncc4ccccc34)cc2)cn1` [BI1347], the “changes in GAG deposition” value in experiment [1] is given as “not seen”. In addition, the “alcian blue staining (GAG deposition)” value with ATDC5 micromass is “maintained”. The “mineralisation by alizarin red stain vs DMSO” value (“mineralisation … vs DMSO” below) in experiment [2] (1 μM, over 14 days culture) is listed as “completely inhibited mineralisation; also recorded: reduced mineralisation”. Further, in the experiment with ATDC5 micromasses [3], the “gene expression of OA protective genes (TIMP4, MATN3, SMOC2, CNMD)” value is “dose dependent increase”; the “gene expression of hypertrophic/mineralised matrix marker IBSP” value is recorded as “dose dependent decrease”; the “dose response in gene expression: efficacy down to” value worked out at 10 nM. Besides, in the experiment with ATDC5 micromasses [4], the “Glycosaminoglycan (GAG) deposition (leached alcian blue absorbances) vs DMSO” value is given as “increase in GAG deposition” and the “Mineralization (leached alizarin red absorbances) vs DMSO” value was “decrease in mineralisation”.

On to `Cc1n[nH]c2ncc(C(=O)N3CCC[C@H]3c3ccc(Cl)cc3)cc12` [MSC2530818], for which the “changes in GAG deposition” value in experiment [1] is reported as “not seen”. Besides, the “alcian blue staining (GAG deposition)” value in the experiment on ATDC5 micromass is recorded as “maintained”. Also, the “mineralisation … vs DMSO” value in experiment [2] (100 nM, 14 days (AA day 0-7, AA + 2 mM BGP day 7-14)) is listed as “mineralisation was ablated”. Also, the “mineralisation … vs DMSO” value in experiment [2] (100 nM, 14 days (AA day 0-7, AA + 2 mM BGP day 7-14), listed as MSC) is given as “ablation of mineralization”. Also, in the experiment on ATDC5 micromasses [3], the “gene expression of OA protective genes (TIMP4, MATN3, SMOC2, CNMD)” value is “dose dependent increase”; the “gene expression of hypertrophic/mineralised matrix marker IBSP” value is on record as “dose dependent decrease”; the “dose response in gene expression: efficacy down to” value is given as 10 nM. Further, in the experiment with ATDC5 micromasses [4], the “Glycosaminoglycan (GAG) deposition (leached alcian blue absorbances) vs DMSO” value is “increase in GAG deposition” and the “Mineralization (leached alizarin red absorbances) vs DMSO” value is given as “decrease in mineralisation”. Besides, the “size of the hypertrophic region and number of enlarged/hypertrophic cells” value in experiment [5] was “dose dependent reduction”. Further, the “gene expression of cartilage anabolic biomarkers” value in experiment [6] (N=2, not powered for significance) is reported as “increased; also recorded: increase in expression”. Moreover, in experiment [6] (N=2, vs DMSO), the “articular cartilage thickness (appearance post-dissection)” value is recorded as “appears thicker”. Also, the “infiltration of blood vessels in articular cartilage” value in experiment [6] (male aged 18 weeks, N=2, vs DMSO) is given as “absent; also recorded: not present”.
